Results: patent publication US20250163104A1, “MACROCYCLIC IMMUNOMODULATORS” (priority 2021, published 2025)
pIC50: −log10 of the molar value. Where a SMILES comes first, the peptide text is derived from it. Bridges are numbered along the chain shown (N, C = ends). [ ]: non-standard residue; d: D form. The star is where a group is joined. Phe(3-CF3) = N[C@@H](Cc1cccc(C(F)(F)F)c1)C(=O)O; Phe(4-COOH) = N[C@@H](Cc1ccc(C(=O)O)cc1)C(=O)O; Bip = N[C@@H](Cc1ccc(-c2ccccc2)cc1)C(=O)O; Phe(3-Me) = Cc1cccc(C[C@H](N)C(=O)O)c1; Phe(2-F) = N[C@@H](Cc1ccccc1F)C(=O)O; Val(3-OH) = CC(C)(O)[C@H](N)C(=O)O; 3Pal = N[C@@H](Cc1cccnc1)C(=O)O; 4Pal = N[C@@H](Cc1ccncc1)C(=O)O; 3Thi = N[C@@H](Cc1ccsc1)C(=O)O; Cha = N[C@@H](CC1CCCCC1)C(=O)O; Cit = NC(=O)NCCC[C@H](N)C(=O)O; Phg = N[C@H](C(=O)O)c1ccccc1; Hpra = C#CCC[C@H](N)C(=O)O; Carboxymethyl = O=C(O)C*; NMeAib = CNC(C)(C)C(=O)O; Orn = NCCC[C@H](N)C(=O)O; Dab = NCC[C@H](N)C(=O)O; Abu = CC[C@H](N)C(=O)O; Dap = NC[C@H](N)C(=O)O

The compounds below were run against T1, human PD-1 / PD-L1-Ig binding on Jurkat cell line over-expressing human PD-1 (Jurkat-PD-1) (Homo sapiens, UniProt Q15116) (assay: Jurkat-PD-1 Cell Binding High-Content Screening Assay (CBA)). Settings: Jurkat HPD1_PDL1 IC50, Jurkat-PD-1 cells, PE-labeled PD-L1-Ig 20 nM final.
T1 construct: expressed in transfected cells; host or cells: Jurkat
T1 sequence (Q15116 25-288): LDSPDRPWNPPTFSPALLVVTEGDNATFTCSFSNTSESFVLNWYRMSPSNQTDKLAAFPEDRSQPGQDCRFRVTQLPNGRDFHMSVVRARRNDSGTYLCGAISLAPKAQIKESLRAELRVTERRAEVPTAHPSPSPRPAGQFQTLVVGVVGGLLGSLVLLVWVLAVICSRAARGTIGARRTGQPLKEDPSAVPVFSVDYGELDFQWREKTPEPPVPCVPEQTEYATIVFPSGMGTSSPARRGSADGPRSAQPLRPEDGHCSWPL
Assay type: cell-based
Method in brief: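 Jurkat-hPD-1 cells in DMEM with 10% fetal calf serum receive test compound and are held at 37° C for 2 h. PE-labeled PD-L1-Ig is added at 20 nM final and left for 1 hour. Cells are then fixed and Hoechst-stained, and binding is measured by imaging.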

Compound | pIC50
CC[C@H](C)[C@@H]1NC(=O)[C@H](Cc2ccc(-c3ccccc3)cc2)NC(=O)[C@H](C(C)C)NC(=O)[C@H](Cc2cccc(C)c2)NC(=O)[C@H](CC(=O)O)NC(=O)[C@H](Cc2ccc(OCC(=O)O)cc2)NC(=O)[C@H](Cc2cccnc2)NC(=O)CSC[C@@H](C(=O)N[C@@H](C)C(N)=O)NC(=O)[C@H]([C@@H](C)O)NC(=O)[C@H](C(C)C)NC(=O)[C@H](CC(C)C)NC(=O)[C@H](CCN)NC(=O)[C@@H](CC(C)C)NC(=O)[C@H](CCCN)NC1=O [Compound 1224] | 7.95
CC[C@@H]1NC(=O)[C@H](Cc2c[nH]c3ccccc23)NC(=O)[C@H](CC(=O)O)NC(=O)[C@H](Cc2ccc(OCC(=O)O)cc2)NC(=O)[C@H](CN)NC(=O)CSC[C@@H](C(=O)N[C@@H](C)C(N)=O)NC(=O)[C@H]([C@@H](C)O)NC(=O)[C@H](C(C)C)NC(=O)[C@H](CC2CCCCC2)NC(=O)[C@H](CCN)NC(=O)[C@@H](CC(C)C)NC(=O)[C@H](CCCN)NC(=O)[C@H](C(C)C)NC(=O)[C@H](Cc2ccc(-c3ccccc3)cc2)NC1=O [Compound 1729] ({CH2CO}-[Dap]Y(Carboxymethyl)DW[Abu][Bip]V[Orn][dL][Dab][Cha]VTCA-NH2; thioether N-14) | 7.77

Same assay, conditions: Jurkat-PD-1 cells, PE-labeled PD-L1-Ig 20 nM final; read-out: Jurkat HPD1_PDL1 IC50

pIC50 | Compound
6.79 | CC(C)C[C@H]1NC(=O)[C@H](CCCN)NC(=O)[C@H](CCCNC(N)=O)NC(=O)[C@H](Cc2ccc(-c3ccccc3)cc2)NC(=O)[C@H](C(C)C)NC(=O)[C@H](Cc2c[nH]c3ccccc23)NC(=O)[C@H](CC(=O)O)NC(=O)[C@H](Cc2ccc(OCC(=O)O)cc2)NC(=O)[C@H](CN)NC(=O)CSC[C@@H](C(=O)N[C@@H](C)C(N)=O)NC(=O)[C@H]([C@@H](C)O)NC(=O)[C@H](C(C)C)NC(=O)[C@H](Cc2cccnc2)NC(=O)[C@H](CCN)NC1=O [Compound 1350]
6.38 | CC(C)C[C@H]1NC(=O)[C@H](CCCN)NC(=O)[C@H](CCC(=O)O)NC(=O)[C@H](Cc2ccc(-c3ccccc3)cc2)NC(=O)[C@H](C(C)C)NC(=O)[C@H](Cc2c[nH]c3ccccc23)NC(=O)[C@H](CC(=O)O)NC(=O)[C@H](Cc2ccc(OCC(=O)O)cc2)NC(=O)[C@H](CN)NC(=O)CSC[C@@H](C(=O)N[C@@H](C)C(N)=O)NC(=O)[C@H]([C@@H](C)O)NC(=O)[C@H](C(C)C)NC(=O)[C@H](Cc2ccn[nH]2)NC(=O)[C@H](CCN)NC1=O [Compound 1509]
7.96 | CC(=O)NCCCC[C@@H]1NC(=O)[C@H](C(C)C)NC(=O)[C@H](CC2CCCCC2)NC(=O)[C@H](CCN)NC(=O)[C@@H](CC(C)C)NC(=O)[C@H](CCN)NC(=O)[C@H](C(C)C)NC(=O)[C@H](Cc2ccc(-c3ccccc3)cc2)NC(=O)[C@H](C(C)C)NC(=O)[C@H](Cc2c[nH]c3ccccc23)NC(=O)[C@H](CC(=O)O)NC(=O)[C@H](Cc2ccc(OCC(=O)O)cc2)NC(=O)[C@H](Cc2ccsc2)NC(=O)CSC[C@@H](C(=O)N[C@@H](CCN)C(N)=O)NC1=O [Compound 2613] ({CH2CO}-[3Thi]Y(Carboxymethyl)DWV[Bip]V[Dab][dL][Dab][Cha]VK(Ac)C[Dab]-NH2; thioether N-14)
7.63 | CC(C)C[C@H]1NC(=O)[C@H](CCCN)NC(=O)[C@H](CCC(=O)O)NC(=O)[C@H](Cc2ccc(-c3ccccc3)cc2)NC(=O)[C@H](C(C)C)NC(=O)[C@H](Cc2c[nH]c3ccccc23)NC(=O)[C@H](CC(=O)O)NC(=O)[C@H](Cc2cccnc2)NC(=O)[C@H](CN)NC(=O)CSC[C@@H](C(=O)N[C@@H](C)C(N)=O)NC(=O)[C@H]([C@@H](C)O)NC(=O)[C@H](C(C)C)NC(=O)[C@H](CC2CCCCC2)NC(=O)[C@H](CCN)NC1=O [Compound 2172] ({CH2CO}-[Dap][3Pal]DWV[Bip]E[Orn][dL][Dab][Cha]VTCA-NH2; thioether N-14)
7.57 | CC(C)C[C@H]1NC(=O)[C@H](CN)NC(=O)[C@H](C(C)C)NC(=O)[C@H](Cc2ccc(-c3ccccc3)cc2)NC(=O)[C@H](C(C)C)NC(=O)[C@H](Cc2c[nH]c3ccccc23)NC(=O)[C@H](CC(=O)O)NC(=O)[C@H](Cc2ccc(O)cc2)NC(=O)[C@H](Cc2ccccc2)NC(=O)CSC[C@@H](C(=O)NCC(N)=O)NC(=O)[C@H](CO)NC(=O)[C@H](C(C)C)NC(=O)[C@H](CC2CCCCC2)NC(=O)[C@H](CC(N)=O)NC1=O [Compound 1412] ({CH2CO}-FYDWV[Bip]V[Dap][dL]N[Cha]VSCG-NH2; thioether N-14)
7.37 | CC(C)C[C@H]1NC(=O)[C@H](CCCN)NC(=O)[C@H](CCCNC(N)=O)NC(=O)[C@H](Cc2ccc(-c3ccccc3)cc2)NC(=O)[C@H](C(C)C)NC(=O)[C@H](Cc2c[nH]c3ccccc23)NC(=O)[C@H](CC(=O)O)NC(=O)[C@H](Cc2cccc(C(F)(F)F)c2)NC(=O)[C@H](CN)NC(=O)CSC[C@@H](C(=O)N[C@@H](C)C(N)=O)NC(=O)[C@H]([C@@H](C)O)NC(=O)[C@H](C(C)C)NC(=O)[C@H](CC2CCCCC2)NC(=O)[C@H](CCN)NC1=O [Compound 2092] ({CH2CO}-[Dap][Phe(3-CF3)]DWV[Bip][Cit][Orn][dL][Dab][Cha]VTCA-NH2; thioether N-14)

The remaining lines, values behind:

Compound | pIC50
C#CCC[C@@H]1NC(=O)[C@H](CC2CCCCC2)NC(=O)[C@H](CCN)NC(=O)[C@@H](CC(C)C)NC(=O)[C@H](CCCN)NC(=O)[C@H](C(C)C)NC(=O)[C@H](Cc2ccc(-c3ccccc3)cc2)NC(=O)[C@H](C(C)C)NC(=O)[C@H](Cc2cccc(C)c2)NC(=O)[C@H](CC(=O)O)NC(=O)[C@H](Cc2ccc(C(=O)O)cc2)NC(=O)[C@H](CN)NC(=O)CSC[C@@H](C(=O)N[C@@H](CCN)C(N)=O)NC(=O)[C@H]([C@@H](C)O)NC1=O [Compound 2027] ({CH2CO}-[Dap][Phe(4-COOH)]D[Phe(3-Me)]V[Bip]V[Orn][dL][Dab][Cha][Hpra]TC[Dab]-NH2; thioether N-14) | 7.99
Cc1ccccc1C[C@@H]1NC(=O)[C@H](CC(=O)O)NC(=O)[C@H](Cc2ccc(OCC(=O)O)cc2)NC(=O)[C@H](CN)NC(=O)CSC[C@@H](C(=O)N[C@@H](C)C(N)=O)NC(=O)[C@H]([C@@H](C)O)NC(=O)[C@H](C(C)C)NC(=O)[C@H](CC2CCCCC2)NC(=O)[C@H](CCN)NC(=O)[C@@H](CC(C)C)NC(=O)[C@H](CCCN)NC(=O)[C@H](CCC(=O)O)NC(=O)[C@H](Cc2ccc(-c3ccccc3)cc2)NC(=O)[C@H](C(C)C)NC1=O [Compound 2151] | 7.92
Cc1cccc(C[C@@H]2NC(=O)[C@H](CC(=O)O)NC(=O)[C@H](Cc3ccc(C(=O)O)cc3)NC(=O)C(C)(C)N(C)C(=O)CSC[C@@H](C(=O)N[C@@H](CCN)C(N)=O)NC(=O)[C@H](CCC(=O)O)NC(=O)[C@H](C(C)(C)O)NC(=O)[C@H](CC3CCCCC3)NC(=O)[C@H](CCN)NC(=O)[C@@H](CC(C)C)NC(=O)[C@H](CCCN)NC(=O)[C@H](Cc3ccc(OCC(=O)O)cc3)NC(=O)[C@H](Cc3ccc(-c4ccccc4)cc3)NC(=O)[C@H](Cc3ccc(OCC(=O)O)cc3)NC2=O)c1 [Compound 2689] ({CH2CO}-[NMeAib][Phe(4-COOH)]D[Phe(3-Me)]Y(Carboxymethyl)[Bip]Y(Carboxymethyl)[Orn][dL][Dab][Cha][Val(3-OH)]EC[Dab]-NH2; thioether N-14) | 6.39
CC(C)C[C@H]1NC(=O)[C@H](CCCN)NC(=O)[C@H](CCC(=O)O)NC(=O)[C@H](Cc2ccc(-c3ccccc3)cc2)NC(=O)[C@H](C(C)C)NC(=O)[C@H](Cc2ccccc2F)NC(=O)[C@H](CC(=O)O)NC(=O)[C@H](Cc2ccncc2)NC(=O)[C@H](Cc2ccncc2)NC(=O)CSC[C@@H](C(=O)N[C@@H](C)C(N)=O)NC(=O)[C@H]([C@@H](C)O)NC(=O)[C@H](C(C)C)NC(=O)[C@H](CC2CCCCC2)NC(=O)[C@H](CCN)NC1=O [Compound 2211] ({CH2CO}-[4Pal][4Pal]D[Phe(2-F)]V[Bip]E[Orn][dL][Dab][Cha]VTCA-NH2; thioether N-14) | 7.69
CC(C)C[C@@H]1NC(=O)[C@H](CCCCN)NC(=O)[C@@H](CC(C)C)NC(=O)[C@H](CCCN)NC(=O)[C@H](Cc2cnc[nH]2)NC(=O)[C@H](Cc2ccc(-c3ccccc3)cc2)NC(=O)[C@H](C(C)C)NC(=O)[C@H](Cc2c[nH]c3ccccc23)NC(=O)[C@H](CC(=O)O)NC(=O)[C@H](Cc2ccc(O)cc2)NC(=O)[C@H](CC(N)=O)NC(=O)CSC[C@@H](C(=O)N[C@@H](C)C(N)=O)NC(=O)[C@H]([C@@H](C)O)NC(=O)[C@H](C(C)C)NC1=O [Compound 1133] ({CH2CO}-NYDWV[Bip]H[Orn][dL]KLVTCA-NH2; thioether N-14) | 7.48
Cc1cccc(C[C@@H]2NC(=O)[C@H](CC(=O)O)NC(=O)[C@H](Cc3ccc(C(=O)O)cc3)NC(=O)[C@H](Cc3ccncc3)NC(=O)CSC[C@@H](C(N)=O)NC(=O)[C@H](CCC(N)=O)NC(=O)[C@H](C(C)C)NC(=O)[C@H](CC3CCCCC3)NC(=O)[C@H](CCN)NC(=O)[C@@H](CC(C)C)NC(=O)[C@H](CCCN)NC(=O)[C@H](CCCNC(N)=O)NC(=O)[C@H](Cc3ccc(-c4ccccc4)cc3)NC(=O)[C@H](C(C)C)NC2=O)c1 [Compound 2272] ({CH2CO}-[4Pal][Phe(4-COOH)]D[Phe(3-Me)]V[Bip][Cit][Orn][dL][Dab][Cha]VQC-NH2; thioether N-14) | 7.49
CC(C)C[C@H]1NC(=O)[C@H](CCCN)NC(=O)[C@H](CCCNC(N)=O)NC(=O)[C@H](Cc2ccc(-c3ccccc3)cc2)NC(=O)[C@H](c2ccccc2)NC(=O)[C@H](Cc2c[nH]c3ccccc23)NC(=O)[C@H](CC(=O)O)NC(=O)[C@H](Cc2ccc(OCC(=O)O)cc2)NC(=O)[C@H](CN)NC(=O)CSC[C@@H](C(=O)N[C@@H](C)C(N)=O)NC(=O)[C@H]([C@@H](C)O)NC(=O)[C@H](C(C)C)NC(=O)[C@H](CC2CCCCC2)NC(=O)[C@H](CCN)NC1=O [Compound 1359] ({CH2CO}-[Dap]Y(Carboxymethyl)DW[Phg][Bip][Cit][Orn][dL][Dab][Cha]VTCA-NH2; thioether N-14) | 8.10
